This is an account of results in patent publication US20160137639A1, “TRIAZOLE-ISOXAZOLE COMPOUND AND MEDICAL USE THEREOF” (JAPAN TOBACCO INC., priority 2012, published 2016).

Experiment [1] concerns the target T1, human RORγ (Homo sapiens, UniProt P51449).
T1 construct: human, NM_005060.3 and from Ser253 to Lys518; expressed in transfected cells; host or cells: CHO cells (transient co-transfection with pG5-Luc reporter)
T1 sequence (P51449 253-518): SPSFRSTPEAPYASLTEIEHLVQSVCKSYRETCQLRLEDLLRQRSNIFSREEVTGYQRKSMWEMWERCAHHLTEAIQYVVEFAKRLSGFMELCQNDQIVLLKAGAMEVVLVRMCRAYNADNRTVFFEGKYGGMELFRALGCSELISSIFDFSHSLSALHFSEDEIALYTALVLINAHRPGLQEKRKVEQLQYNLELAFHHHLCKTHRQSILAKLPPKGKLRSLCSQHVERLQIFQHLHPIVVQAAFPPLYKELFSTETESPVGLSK
Description: Luciferase reporter gene assay of inhibitory effect against RORγ transcriptional activity (GAL4-hRORγ plasmid in CHO cells). In kind it is cell-based. To be noted: read-out: LUC EC50 (μM) hRORg. As to the method:
(§1) In vitro assay of inhibitory effect against RORγ transcriptional activity
(§2) Inhibitory effect of test article on transcriptional activity of RORγ was measured by means of the following luciferase reporter gene assay.
(§3) A cDNA encoding human and mouse RORγ ligand binding domain (LBD) were obtained based on the reported sequences (Genebank accession number and sequence: human, NM_005060.3 and from Ser253 to Lys518; mouse, NM_011281.2 and from Ile251 to Lys516).
(§4) The cDNA of human RORγ or mouse RORγ was inserted into pFA-CMV vector (Strategene), which expresses GAL4-DNA binding domain fusion protein.
(§5) The resulting plasmids are hereinafter referred to as GAL4-hRORγ plasmid and GAL4-mRORγ plasmid, respectively.
(§6) Human or mouse GAL4-RORγ plasmid was transiently co-transfected into Chinese hamster ovary cells (CHO cells) with […] plasmid, a reporter plasmid expressing firefly luciferase depending on GAL4.
(§7) TransIT CHO transfection reagent (Mirus) was used to co-transfect human or mouse GAL4-RORγ plasmid into CHO cells with pG5-Luc plasmid.
(§8) One day before the assay, CHO cells were suspended in HAM F-12 Nutrient medium containing 10 v/v % fetal bovine serum and seeded at 6×10^6 cells per 175 cm^2 cell culture flask.
(§9) Fifty four micro litters of Transit-CHO reagent was added into a 15 ml tube containing 1.16 ml of HAM F-12 Nutrient medium without fetal bovine serum and incubated at room temperature for 10 min.
A total 36 uL plasmid solution containing the GAL4-hRORγ plasmid (400 ng), pG5-Luc plasmid (9000 ng) and pcDNA3 plasmid (8600 ng) were added into the tube and mixed gently.
(§10) The mixture was incubated at room temperature for 10 min.
(§11) Nine micro litters of CHO Mojo Reagent was then added into each tube and mixed gently. The mixture was incubated at room temperature for 10 min.
(§12) The resultant transfection reagent was applied to the cell culture.
(§13) After incubation at 37° C., 5% CO2 for 4 hr, the transfected CHO cells were harvested by a trypsin treatment.
(§14) The collected cells were resuspended in HAM F-12 Nutrient medium supplemented with 10 v/v % fetal bovine serum and plated into a 384-well-white plate at 8,000 cells/50 uL/well.
(§15) The plate was incubated at room temperature for 1 hour and then further incubated at 37° C., 5% CO2 for 3 hours.
(§16) The test articles were dissolved in dimethylsulfoxide (DMSO) to obtain a concentration of 10 mmol/L. The resulting solution was diluted with the medium just before use and added to the cells in the plate to prepare 8 different concentrations of the test article.
(§17) The final concentration of DMSO was 0.1 v/v % After the addition of the test articles, the cells were incubated at 37° C., 5% CO2 for 2 days.
(§18) RORγ transcriptional activity was detected as the intracellular luciferase activity using SteadyLite HTS Reporter Gene Assay System (Perkin Elmer).
(§19) StedyLite Reagent was diluted five-fold into a solution containing 10 mM Tricine, 0.2% w/v BSA, 0.02% v/v Tween-20 to obtain the luciferase substrate solution.
(§20) After the measurement of the cell viability using Resazurin, the culture media in the 384 well-plate were removed. Then the Luc substrate solution was added into each well.
(§21) After the incubation at room temperature for 10 minutes, luminescence of each well was measured by a microplate reader.
(§22) The luciferase activity derived from the luminescence count in the vehicle-control well treated with 0.1% DMSO alone was defined as 100%, and the luciferase activity in the test article was calculated as a percentage (%-of-control) based on the value of the vehicle-control.
(§23) EC50 value of test article was calculated by curve fitting with GraphPad Prism.
(§24) The luminescence counts at the concentration of the test article where the cytotoxicity was observed were excluded from the data analysis.

Experiment [2] deals with T2, mouse RORγ (Mus musculus, UniProt P51450).
T2 construct: mouse, NM_011281.2 and from Ile251 to Lys516; expressed in transfected cells; host or cells: CHO cells (transient co-transfection with pG5-Luc reporter)
T2 sequence (P51450 251-516): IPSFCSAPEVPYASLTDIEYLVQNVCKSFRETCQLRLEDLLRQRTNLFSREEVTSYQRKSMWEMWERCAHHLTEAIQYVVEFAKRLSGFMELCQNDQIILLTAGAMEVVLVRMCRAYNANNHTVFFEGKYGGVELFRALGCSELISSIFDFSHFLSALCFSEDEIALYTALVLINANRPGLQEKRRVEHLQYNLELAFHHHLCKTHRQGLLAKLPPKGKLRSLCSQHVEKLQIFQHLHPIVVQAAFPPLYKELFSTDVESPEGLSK
Description: Luciferase reporter gene assay of inhibitory effect against RORγ transcriptional activity (GAL4-mRORγ plasmid in CHO cells). In kind it is cell-based. To be noted: read-out: LUC EC50 (μM) mRORg. Here is the method: as §1, §2, §3, §4, §5, §6, §7, §8, §9, §10, §11, §12, §13, §14, §15, §16, §17, §18, §19, §20, §21, §22, §23, §24
For orientation: A reporter such as luciferase makes a cellular process visible.

Bounds are passed on as bounds.

As for `C=CCC(CC(=O)Nc1cccc(Cl)c1C)c1nnc(CCC2CCCCC2)n1C1CC1` (racemic) [Example F-244], the EC50 in experiment [1] and in experiment [2] was under 3 µM in each case.

Turning to `C=CCC(CC(=O)NCc1ccc(C)cc1OC)c1nnc(CCC2CCCCC2)n1C1CC1` (racemic) [Example F-246], the 50% effective concentration (EC50) in experiment [1] and in experiment [2] was under 3 µM each time.

`Cc1c(Cl)cccc1NC(=O)CC(CCO)c1nnc(CCC2CCCCC2)n1C1CC1` (racemic) [Example F-247]: the half-maximal effective concentration (EC50) in experiment [1] and in experiment [2] was under 3 µM each time.

For `Cc1ccc(NC(=O)CC(CCO)c2nnc(CCC3CCCCC3)n2C2CC2)c(C)c1` (racemic) [Example F-248], the EC50 in experiment [1] and in experiment [2] was under 3 µM in each case.

`COc1cc(C)ccc1CNC(=O)CC(CCO)c1nnc(CCC2CCCCC2)n1C1CC1` (racemic) [Example F-249]: the EC50 in experiment [1] and in experiment [2] was under 3 µM each time.

Take `Cc1ccc(NC(=O)CC(CC(=O)O)c2nnc(CCCC(C)C)n2C2CC2)c(C)c1` (racemic) [Example F-252]: the concentration for a half-maximal effect (EC50) in experiment [1] and in experiment [2] was over 3 µM each time.

Turning to `Cc1ccc(NC(=O)CC(CC(N)=O)c2nnc(CCCC(C)C)n2C2CC2)c(C)c1` (racemic) [Example F-253], the EC50 in experiment [1] and in experiment [2] was over 3 µM throughout.

Consider `CNC(=O)CC(CC(=O)Nc1ccc(C)cc1C)c1nnc(CCCC(C)C)n1C1CC1` (racemic) [Example F-265], for which the EC50 (in general, the concentration that produces a half-maximal response) in experiment [1] was over 3 µM; in experiment [2] it was under 3 µM.

For the compound `Cc1ccc(NC(=O)CC(CC(=O)N(C)C)c2nnc(CCCC(C)C)n2C2CC2)c(C)c1` (racemic) [Example F-266], the 50% effective concentration (EC50) in experiment [1] and in experiment [2] was under 3 µM in each case.

As to `Cc1ccc(NC(=O)CC(CO)c2nnc(CCCC(C)C)n2C2CC2)c(C)c1` (racemic) [Example F-271], the 50% effective concentration (EC50) in experiment [1] and in experiment [2] was under 3 µM each time.

On to `Cc1ccc(NC(=O)CC(CCN2C(=O)c3ccccc3C2=O)c2nnc(CCCC(C)C)n2C2CC2)c(C)c1` (racemic) [Example F-272], for which the EC50 in experiment [1] and in experiment [2] was under 3 µM throughout.

On to `Cc1ccc(NC(=O)CC(CCN)c2nnc(CCCC(C)C)n2C2CC2)c(C)c1` (racemic) [Example F-273], for which the concentration for a half-maximal effect (EC50) in experiment [1] and in experiment [2] was over 3 µM each time.

As to `Cc1ccc(NC(=O)CC(CN)c2nnc(CCCC(C)C)n2C2CC2)c(C)c1` (racemic) [Example F-274], the EC50 in experiment [1] and in experiment [2] was over 3 µM each time.

Regarding `CC(=O)NCCC(CC(=O)Nc1ccc(C)cc1C)c1nnc(CCCC(C)C)n1C1CC1` (racemic) [Example F-275], the concentration for a half-maximal effect (EC50) in experiment [1] and in experiment [2] was over 3 µM each time.

`Cc1ccc(NC(=O)CC(CCN(C)C)c2nnc(CCCC(C)C)n2C2CC2)c(C)c1` (racemic) [Example F-276]: the EC50 in experiment [1] and in experiment [2] was over 3 µM throughout.

`CC(=O)NCC(CC(=O)Nc1ccc(C)cc1C)c1nnc(CCCC(C)C)n1C1CC1` (racemic) [Example F-277]: the half-maximal effective concentration (EC50) in experiment [1] was over 3 µM; in experiment [2], under 3 µM.

On to `Cc1ccc(NC(=O)CC(CN(C)C)c2nnc(CCCC(C)C)n2C2CC2)c(C)c1` (racemic) [Example F-278], for which the EC50 is over 3 µM in experiment [1] and under 3 µM in experiment [2].

As to `COc1cc(C)ccc1CNC(=O)[C@H]1CN(C(C)=O)C[C@@H]1c1nnc(CCCC(C)C)n1C1CC1` (racemic) [Example F-279], the EC50 in experiment [1] and in experiment [2] was under 3 µM throughout.

Take `Cc1ccc(NC(=O)CC(CCCN2C(=O)c3ccccc3C2=O)c2nnc(CCCC(C)C)n2C2CC2)c(C)c1` (racemic) [Example F-281]: the EC50 in experiment [1] and in experiment [2] was under 3 µM each time.

On to `Cc1ccc(NC(=O)CC(CCCN)c2nnc(CCCC(C)C)n2C2CC2)c(C)c1` (racemic) [Example F-282], for which the concentration for a half-maximal effect (EC50) in experiment [1] and in experiment [2] was over 3 µM in each case.

In the case of `Cc1ccc(NC(=O)CC(CCC(=O)O)c2nnc(CCCC(C)C)n2C2CC2)c(C)c1` (racemic) [Example F-283], the EC50 in experiment [1] and in experiment [2] was over 3 µM each time.

As to `Cc1ccc(NC(=O)CC(CCC(N)=O)c2nnc(CCCC(C)C)n2C2CC2)c(C)c1` (racemic) [Example F-284], the EC50 in experiment [1] and in experiment [2] was over 3 µM in each case.

As for `CNC(=O)CCC(CC(=O)Nc1ccc(C)cc1C)c1nnc(CCCC(C)C)n1C1CC1` (racemic) [Example F-285], the half-maximal effective concentration (EC50) in experiment [1] was over 3 µM; in experiment [2] it was under 3 µM.

As to `Cc1ccc(NC(=O)CC(CCC(=O)N(C)C)c2nnc(CCCC(C)C)n2C2CC2)c(C)c1` (racemic) [Example F-286], the EC50 in experiment [1] and in experiment [2] was under 3 µM each time.

In the case of `CC(=O)NCCCC(CC(=O)Nc1ccc(C)cc1C)c1nnc(CCCC(C)C)n1C1CC1` (racemic) [Example F-287], the EC50 in experiment [1] and in experiment [2] was over 3 µM each time.

In the case of `Cc1ccc(NC(=O)CC(CCCN(C)C)c2nnc(CCCC(C)C)n2C2CC2)c(C)c1` (racemic) [Example F-288], the EC50 in experiment [1] and in experiment [2] was over 3 µM each time.

On to `COC(C)(C)CCCc1nnc([C@H]2CN(C(C)=O)C[C@@H]2C(=O)Nc2ccc(C)cc2C)n1C1CC1` (racemic) [Example F-290], for which the EC50 in experiment [1] and in experiment [2] was over 3 µM throughout.

On to `CCC(C)(C)CCc1nnc([C@H]2CN(C(C)=O)C[C@@H]2C(=O)Nc2ccc(C)cc2C)n1C1CC1` (racemic) [Example F-299], for which the 50% effective concentration (EC50) in experiment [1] and in experiment [2] was under 3 µM each time.

On to `CC(=O)N1C[C@H](C(=O)Nc2ccc(C)cc2C)[C@@H](c2nnc([C@H]3CC[C@H](C(C)C)CC3)n2C2CC2)C1` (racemic) [Example F-300], for which the half-maximal effective concentration (EC50) in experiment [1] and in experiment [2] was under 3 µM in each case.

For the compound `C=CCC(CC(=O)Nc1ccc(C)cc1C)c1nnc(CCCC(C)(C)C)n1C1CC1` (racemic) [Example F-306], the EC50 in experiment [1] and in experiment [2] was under 3 µM throughout.

For the compound `Cc1ccc(NC(=O)CC(CCO)c2nnc(CCCC(C)(C)C)n2C2CC2)c(C)c1` (racemic) [Example F-307], the half-maximal effective concentration (EC50) in experiment [1] and in experiment [2] was under 3 µM each time.

As for `CC(=O)N1C[C@H](C(=O)Nc2ccc(C)cc2C)[C@@H](c2nnc(-c3ccc(C(C)C)cc3)n2C2CC2)C1` (racemic) [Example F-319], the EC50 in experiment [1] and in experiment [2] was under 3 µM in each case.

As for `CC(=O)N1C[C@H](C(=O)Nc2ccc(C)cc2C)[C@@H](c2nnc(CCC(C)(C)C(C)C)n2C2CC2)C1` (racemic) [Example F-321], the half-maximal effective concentration (EC50) in experiment [1] and in experiment [2] was under 3 µM throughout.
